Source: patent publication US20090092664A1, “POLYMER-METAL CHELATOR CONJUGATES AND USES THEREOF” (UNIVERSITY OF KENTUCKY RESEARCH FOUNDATION, priority 2007, published 2009)

Columns and labels:
HL-60 cells [1] = assay: Intracellular ROS (H2DCFDA), HL-60 cells; assay type: cell-based, human; conditions: D-pen 200 μM, cupric sulfate 10 μM, catalase 500 U/mL with D-pen plus cupric sulfate
Experimental: (§1) FIGS. 4A-B: D-pen in the presence of cupric sulfate generates intracellular ROS in breast cancer and leukemia cells. […] Cells were incubated without (positive control) or with H2O2, H2O2 plus catalase, cupric sulfate, D-pen, D-pen plus cupric sulfate, D-pen plus cupric sulfate plus catalase in media. Unloaded cells were used as negative control. The cell associated fluorescence was measured at 30, 60, 90 min at excitation and emission of 485±20 nm and 530±25 nm, respectively. Data are reported as the DCF fluorescence (fold increase versus control).
(§2) 2′-7′-dichlorodihydrofluorescein diacetate (H2DCFDA) was used as an indicator of intracellular ROS generation. H2DCFDA is a cell permeable probe, it enters the cell and is deacetylated to a non-fluorescent product, 2′-7′-dichlorodihydrofluorescein (H2DCF) by cellular esterases and is oxidized by ROS to a fluorescent product, 2′-7′-dichlorofluorescein (DCF). MCF-7 and HL-60 cells were loaded with H2DCFDA and were seeded in a 96 well plate at a concentration of 3×10^4 cells/well. Briefly, cells were incubated with PBS buffer containing 5 μM H2DCFDA (dissolved in DMSO) for 30 min at 37° C. H2DCFDA was then removed and cells were washed twice with fresh PBS to remove excess H2DCFDA. Cells were then incubated with either drug in media or media alone (positive control). Non-H2DCFDA loaded cells were used as negative control. The fluorescence of control and sample wells was recorded at excitation 485±20 nm, emission 530±25 nm with Biotek FL600 (Biotek Instruments, Winooski, Vt.) at 30, 60, and 90 min. Then data is reported as DCF fluorescence (fold increase vs. control) corresponding to the increase of fluorescence associated with the sample cells compared to that of untreated cells.

MCF-7 cells [2] = assay: Intracellular ROS (H2DCFDA), MCF-7 cells; assay type: cell-based, human; conditions: for intracellular ROS generation (in words): D-pen 200 μM, cupric sulfate 10 μM, catalase 500 U/mL with D-pen plus cupric sulfate
Experimental: as §1, §2

HL-60 cells [3] = assay type: cell-based, human
Experimental: FIG. 19: Cellular uptake of D-pen. D-pen (100 μM) was added to HL-60 (1×10^6) cells in PBS (pH 7.4) in a 24-well plate at 37° C. in 5% CO2 incubator. Cells were separated by centrifugation and the supernatant was analyzed by HPLC assay for D-pen concentration. Data represents mean±SD (n=4).
Quantitative cell uptake of free D-pen. The quantitative cell uptake of free D-pen was investigated in HL-60 cells. Briefly, D-pen (100 μM) was incubated with HL-60 (1×10^6) cells in PBS, pH 7.4 at 37° C. in a 5% CO2 incubator. Cells were incubated for 1-4 h. At pre-determined time the cells were separated by centrifugation and the supernatant was analyzed for the remaining concentration of D-pen as present as either free D-pen or D-pen disulfide using the HPLC assay previously described (Gupte and Mumper, 2007).

HL-60 cells [4] = assay: Cytotoxicity of PGA-D-pen conjugate (MTT), HL-60; assay type: cell-based, human; conditions: HL-60, 48 h
Experimental: (§4) Cell Culture and Cytotoxicity: The P388 cells and HL-60 cells were plated at 1×10^4 and 4×10^4 cells respectively in 200 μl of medium per well in round bottom 96-well microwell plates. The MDA-MB-468 cells were plated at 1×10^4 cells/well in 96-well flat bottom microwell plates and allowed to attach overnight. Equal volumes of PGA-D-pen conjugate, PGA, D-pen, PGA+D-pen or PBS were added and the plates were incubated for 48 h (37° C., 5% CO2). 20 μl of MTT reagent (5 mg/ml in PBS; Sigma) was added to each well and re-incubated for 3-4 h to allow formation of formazan crystals. The round bottom plates were centrifuged at 200 g for 5 min. Subsequently, the supernatant was aspirated and 200 μl of DMSO were added to each well and the plate was incubated at room temperature for 1 h to lyse the cells and solubilize formazan. The optical density of each well at 570 nm was measured on a Synergy™ 2 Multi-Detection Microplate Reader (Biotek, Winooski, Vt.). Percent viability in treated wells was calculated as the percentage of optical density in control wells.

P388 cells = assay: Cytotoxicity of PGA-D-pen conjugate (MTT), P388; assay type: cell-based; conditions: P388, 48 h
Experimental: as §4

MDA-MB-468 cells = assay: Cytotoxicity of PGA-D-pen conjugate (MTT), MDA-MB-468; assay type: cell-based; conditions: MDA-MB-468, 48 h
Experimental: as §4

HL-60 cells [5] = assay: Intracellular ROS (carboxy-H2DCFDA), HL-60 cells; assay type: cell-based, human; conditions: naive HL-60, carboxy-H2DCFDA 25 μM, 8 h after treatment
[6] = cited from earlier work
[7] = cited from earlier work; remark: listed apart in the source
HL-60/VCR cells = assay: MTT cell viability assay, HL-60/VCR leukemia cells; assay type: cell-based, human
Experimental: (§3) FIGS. 1A-B: […] Cell viability was determined with the MTT assay. […] Data are represented as the mean±standard error (SE). […] San Diego, Calif.).

HL-60/ADR cells = assay: MTT cell viability assay, HL-60/ADR leukemia cells; assay type: cell-based, human
Experimental: as §3

HL-60 cells [8] = conditions: cupric sulfate alone 0.1-50 μM, data not shown
HL-60 cells [9] = assay: In-vitro cytotoxicity of gelatin-D-pen conjugate (MTT); conditions: cupric sulfate up to 100 μM, p>0.05 versus control
Experimental: Cells (2×10^4) were incubated with gelatin alone (1 mg/mL), D-pen alone (100 μM), gelatin (1 mg/mL) plus D-pen (100 μM), and gelatin-D-pen conjugate (1 mg/mL) After every 2 day interval media was replaced with fresh media. MTT assay was performed on day 2, 4, 6, 8 and 10. Data represents mean±SD (n=6). **p<0.01 and ***p<0.001 compared to gelatin plus D-pen.
In-vitro cytotoxicity of gelatin-D-pen conjugate. The HL-60 cells were seeded at a density of 2×10^4 cells/mL in a 96 well plate. […] The above experiments were repeated with the copper pre-treated cells. Cell viability was determined at 24 and 72 h with MTT assay.

BT474 cells = assay: MTT cell viability assay, BT474 breast cancer cells; assay type: cell-based, human
Experimental: FIGS. 2A-B: […] Cell viability was determined with MTT assay. […] Inhibitory concentration (IC50) was reported as mean±S.E. […] Data are represented as the mean±standard error (SE). […] San Diego, Calif.).

MCF-7 cells [10] = tested on: MCF-7 cells
Experimental: (§5) Cell viability was determined with MTT assay. Absorbance was measured at 595 nm and adjusted to the absorbance of untreated cells. Data represent mean±SE; n=12 (two independent experiments performed in n=6). Inhibitory concentration (IC50) was reported as mean±S.E.
(§6) Cell viability was measured using the 3-(4,5-dimethyl-2-yl)-2,5-diphenylteraolium bromide (MTT) assay. The adherent breast cancer cells (MCF-7 and BT474) were seeded at an initial concentration of 3×10^4 cells/well 24 h prior to the commencement of the experiments to allow them to attach, while the suspension leukemia cells, HL-60, HL-60-/VCR and HL-60/ADR were seeded at 3×10^4 cells/well on the same day of the experiment in a 96 well plate. […] The MTT assay was performed at 48 h and absorbance was measured with the microplate reader (Biotek ELx 800, Biotek Instruments, Winooski, Vt.) at a wavelength of 595 nm. Data is reported as cell viability (% control) and corresponds to the percent viable cells compared to untreated cells.
(§7) Data are represented as the mean±standard error (SE). Each experimental group consisted of n=6 and experiments were repeated two times. […] The IC50 was calculated with GraphPad Prism® non-linear regression program.

HL-60 cells [11] = assay: cells; conditions: Homo sapiens, HL-60, 48 h
Experimental: Cell viability was determined with the MTT assay. Absorbance was measured at 595 nm and adjusted to the absorbance of untreated cells. Data represent mean±SE; n=12 (two independent experiments performed in n=6). Inhibitory concentrations (IC50) were reported as the mean±S.E in the figure legend.
as §6, §7

MCF-7 cells [12] = assay: cells; conditions: Homo sapiens, MCF7, 48 h
Experimental: as §5, §6, §7

[13] = cupric sulfate alone 0.1-50 μM, data not shown

CC(C)(S)[C@@H](N)C(=O)O [D-pen, D-penicillamine]
intracellular ROS generation (in words) (HL-60 cells [1]): failed to produce any ROS
intracellular ROS generation (in words) (MCF-7 cells [2]): failed to produce any ROS
cell uptake of free D-pen (in words) (HL-60 cells [3]): not to enter leukemia cells
reduction in cell viability (in words) (HL-60 cells [4]): did not cause significant reduction in cell viability
reduction in cell viability (in words) (P388 cells): did not cause significant reduction in cell viability
reduction in cell viability (in words) (MDA-MB-468 cells): did not cause significant reduction in cell viability
intracellular ROS levels (in words) (HL-60 cells [5]): no increase in intracellular ROS
Log P [6]: −0.39
half-life, biphasic elimination from the blood, first value [7]: 6 to 7 min
half-life, biphasic elimination from the blood, second value [7]: 52 to 55 min

CCCCCCOC(=O)[C@H](N)C(C)(C)S [hexyl-D-pen-ester]
Log P [6]: 1.61

catalase
intracellular ROS generation (in words) (HL-60 cells [1]): completely inhibited ROS generation
intracellular ROS generation (in words) (MCF-7 cells [2]): completely inhibited ROS generation

O=S(=O)([O-])[O-].[Cu+2] [cupric sulfate]
loss in cell viability (HL-60/VCR cells; [13]): did not result in any appreciable loss in cell viability
loss in cell viability (HL-60/ADR cells; [13]): did not result in any appreciable loss in cell viability
intracellular ROS generation (in words) (HL-60 cells [1]): failed to produce any ROS
intracellular ROS generation (in words) (MCF-7 cells [2]): failed to produce any ROS
loss in cell viability (HL-60 cells [8]): did not result in any appreciable loss in cell viability
effect of copper pre-treatment on cell number or viability (HL-60 cells [9]): did not result in statistically significant decrease in cell number or viability

OO [H2O2, hydrogen peroxide]
fold difference between IC50 of D-pen plus cupric sulfate and IC50 of H2O2 alone (HL-60/VCR cells): ~4 fold
IC50 (HL-60/VCR cells; Homo sapiens, HL60/VCR, 48 h, MTT, D-pen with cupric sulfate 10 μM): 31.5 ± 1.1 µM
IC50 (HL-60/ADR cells; Homo sapiens, HL60/ADR, 48 h, MTT, D-pen (1-400 μM) with cupric sulfate 10 μM): 162.5 ± 1.1 µM
fold difference between IC50 of D-pen plus cupric sulfate and IC50 of H2O2 alone (BT474 cells; BT474): ~3 fold
IC50 (BT474 cells; Homo sapiens, BT-474, BT474, 48 h, MTT): 96.1 ± 1.1 µM
ROS generated compared to D-pen plus cupric sulfate (MCF-7 cells [2]; H2O2 alone 100 μM): 5 fold
fold difference between IC50 of D-pen plus cupric sulfate and IC50 of H2O2 alone (MCF-7 cells [10]): approximately 2 fold
IC50 (HL-60 cells [11]): 20 ± 1 µM
IC50 (MCF-7 cells [12]): 116 ± 1.6 µM
